This note sets out measurements from patent US10000507B2, “Furo- and thieno-pyridine carboxamide compounds useful as pim kinase inhibitors” (Incyte Corporation, priority 2013, dated 2018).

What all share (type): biochemical
The target of one assay is Pim-2 (Homo sapiens (Human), UniProt Q9P1W9). The assay can be described thus: Pim-2 kinase assay. The note with it: 1 mM ATP, fluorescein-labeled CREBtide peptide substrate; read-out: Pim2 IC50. As to the method:
Pim-2 kinase assay-20 μL reactions were run in white 384 well polystyrene plates dotted with 0.8 μL compound/DMSO in the assay buffer (50 mM Tris, pH 7.5, 0.01% Tween-20, 5 mM MgCl2, 0.01% BSA, 5 mM DTT), containing 0.05 μm Fluorescein-labeled CREBtide peptide substrate (Invitrogen PV3508), 1 mM ATP, and 1 nM enzyme (Invitrogen PV3649) for 2 h at 25° C. Reactions were stopped by addition of 10 μL TR-FRET Dilution Buffer (Invitrogen PV3574) with 30 mM EDTA and 1.5 nM LanthaScreen Tb-CREB pSer133 antibody (Invitrogen PV3566). After 30 min. incubation at room temperature, plates were read on a PHERAstar FS plate reader (BMG Labtech).

In another assay the target is Pim-3 (Homo sapiens (Human), UniProt Q86V86). Description: Pim-3 kinase assay. As to conditions: 1 mM ATP, biotin-labeled BAD peptide substrate; read-out: Pim3 IC50. On the procedure: (§1) Pim-1 and Pim-3 kinase assays-20 μL reactions were run in white 384 well polystyrene plates dotted with 0.8 μL compound/DMSO in the assay buffer (50 mM Tris, pH 7.5, 0.01% Tween-20, 5 mM MgCl2, 0.01% BSA, 5 mM DTT), containing […] Biotin-labeled BAD peptide substrate (AnaSpec 62269), 1 mM ATP, and 2.5 pM (Pim-1, Invitrogen PV3503) or 1.25 pM (Pim-3, Millipore 14-738) enzyme for 1 h at 25° C. Reactions were stopped by addition of 10 μL STOP Buffer (150 mM Tris, pH=7.5, 150 mM NaCl, 75 mM EDTA, 0.01% Tween-20, 0.3% BSA) supplemented with Phospho-Bad (Ser112) Antibody (Cell Signaling 9291) diluted 666-fold, and Streptavidin donor beads (PerkinElmer 6760002) along with Protein-A acceptor beads (PerkinElmer 6760137) at 15 μg/mL each. Supplementation of the STOP buffer with beads and stopping the reactions were done under reduced light. Prior to the stopping reactions STOP buffer with beads was pre-incubated for 1 h in the dark at room temperature. After stopping the reactions, plates were incubated for 1 h in the dark at room temperature before reading on a PHERAstar FS plate reader (BMG Labtech) under reduced light.

The target of another assay is Pim-1 (Homo sapiens (Human), UniProt P11309). The assay can be described thus: Pim-1 kinase assay. The note with it: 1 mM ATP, biotin-labeled BAD peptide substrate; read-out: Pim1 IC50. As to the method: as §1

A value given as a limit tells only on which side of the number the result lay.

Pim-1, sequence (P11309 whole entry): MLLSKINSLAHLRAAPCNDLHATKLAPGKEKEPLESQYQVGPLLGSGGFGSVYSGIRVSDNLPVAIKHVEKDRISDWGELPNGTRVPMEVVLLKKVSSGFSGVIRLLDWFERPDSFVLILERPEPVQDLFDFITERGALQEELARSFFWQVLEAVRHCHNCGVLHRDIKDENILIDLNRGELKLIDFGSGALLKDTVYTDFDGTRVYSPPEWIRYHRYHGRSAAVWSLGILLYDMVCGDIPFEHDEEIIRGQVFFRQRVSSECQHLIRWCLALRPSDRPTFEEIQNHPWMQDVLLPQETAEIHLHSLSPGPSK
Pim-2, sequence (Q9P1W9 whole entry): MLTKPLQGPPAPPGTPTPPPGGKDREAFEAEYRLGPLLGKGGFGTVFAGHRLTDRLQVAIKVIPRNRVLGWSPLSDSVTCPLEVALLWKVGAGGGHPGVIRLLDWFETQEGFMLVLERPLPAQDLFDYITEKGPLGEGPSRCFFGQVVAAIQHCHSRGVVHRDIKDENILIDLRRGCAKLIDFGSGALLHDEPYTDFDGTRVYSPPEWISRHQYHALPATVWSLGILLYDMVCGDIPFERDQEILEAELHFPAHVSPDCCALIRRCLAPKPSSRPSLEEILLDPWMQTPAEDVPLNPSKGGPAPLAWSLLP

By IC50 is commonly meant the concentration at which inhibition is half-maximal. As to `C[C@H]1CN(c2ccncc2NC(=O)c2c(N)oc3cc(C4CCC4)cnc23)C[C@@H](N)[C@@H]1O` [Example 124, 2-Amino-N-{4-[(3R,4R,5S)-3-amino-4-hydroxy-5-methylpiperidin-1-yl]pyridin-3-yl}-6-cyclobutylfuro[3,2-b]pyridine-3-carboxamide], the IC50 on Pim-2, on Pim-3 and on Pim-1 was at most 10 nM in each case.

`CN(C)CCCc1cnc2c(C(=O)Nc3cnccc3N3C[C@@H](N)C[C@@H](C(F)(F)F)C3)c(N)oc2c1` [Example 135, 2-Amino-N-{4-[(3S,5R)-3-amino-5-(trifluoromethyl)piperidin-1-yl]pyridin-3-yl}-6-[3-(dimethylamino)propyl]furo[3,2-b]pyridine-3-carboxamide]: the IC50 at Pim-2 was 10 to 100 nM; on Pim-3 it was at most 10 nM; at Pim-1, at most 10 nM.

In the case of `CCCc1cnc2c(C(=O)Nc3cnccc3N3C[C@@H](N)[C@](C)(O)[C@@H](C)C3)c(N)oc2c1` [Example 85, 2-Amino-N-{4-[(3R,4R,5S)-3-amino-4-hydroxy-4,5-dimethylpiperidin-1-yl]pyridin-3-yl}-6-propylfuro[3,2-b]pyridine-3-carboxamide], the IC50 at Pim-2, on Pim-3 and on Pim-1 was at most 10 nM each time.

Regarding `Cn1ncc(NC(=O)c2c(N)sc3ccc(Cl)nc23)c1N1CCC[C@H](N)C1` [Example 41, 2-Amino-N-{5-[(3S)-3-aminopiperidin-1-yl]-1-methyl-1H-pyrazol-4-yl}-5-chlorothieno[3,2-b]pyridine-3-carboxamide], the IC50 was 100 to 1000 nM on Pim-2, at most 10 nM on Pim-3 and at most 10 nM on Pim-1.

In the case of `CCCc1cnc2c(C(=O)Nc3cnccc3N3CC[C@@H](F)[C@H](N)C3)c(N)oc2c1` [Example 80, 2-Amino-N-{4-[(3R,4R)-3-amino-4-fluoro-piperidin-1-yl]pyridin-3-yl}-6-propylfuro[3,2-b]pyridine-3-carboxamide], the 50% inhibitory concentration (IC50) on Pim-2 was 100 to 1000 nM; at Pim-3, at most 10 nM; on Pim-1 it was at most 10 nM.

Regarding `Nc1oc2cc(CN3CC[C@H](F)C3)cnc2c1C(=O)Nc1cnccc1N1C[C@@H](N)C[C@@H](C(F)(F)F)C1` [Example 106, 2-Amino-N-{4-[(3S,5R)-3-amino-5-(trifluoromethyl)piperidin-1-yl]pyridin-3-yl}-6-{[(3S)-3-fluoropyrrolidin-1-yl]methyl}furo[3,2-b]pyridine-3-carboxamide], the IC50 was 10 to 100 nM at Pim-2, at most 10 nM at Pim-3 and at most 10 nM at Pim-1.

As for `C[C@H]1CN(c2ccncc2NC(=O)c2c(N)oc3cc(Cl)cnc23)C[C@@H](N)[C@@H]1O` [Example 66, 2-amino-N-{4-[(3R,4R,5S)-3-amino-4-hydroxy-5-methylpiperidin-1-yl]pyridin-3-yl}-6-chlorofuro[3,2-b]pyridine-3-carboxamide], the IC50 at Pim-2 is 10 to 100 nM; at Pim-3, at most 10 nM; at Pim-1 it was at most 10 nM.

For the molecule `CN1CCN(Cc2cnc3c(C(=O)Nc4cnccc4N4C[C@@H](N)C[C@@H](C(F)(F)F)C4)c(N)oc3c2)CC1` [Example 108, 2-Amino-N-{4-[(3S,5R)-3-amino-5-(trifluoromethyl)piperidin-1-yl]pyridin-3-yl}-6-[(4-methylpiperazin-1-yl)methyl]furo[3,2-b]pyridine-3-carboxamide], the IC50 was 10 to 100 nM at Pim-2, at most 10 nM on Pim-3 and at most 10 nM at Pim-1.

As for `CC(C)N1CC(c2cnc3c(C(=O)Nc4cnccc4N4CCC[C@H](N)C4)c(N)sc3c2)C1` [Example 33, 2-Amino-N-{4-[(3S)-3-aminopiperidin-1-yl]pyridin-3-yl}-6-(1-isopropylazetidin-3-yl)thieno[3,2-b]pyridine-3-carboxamide], the values for the IC50 on Pim-2, at Pim-3 and at Pim-1 were above 2000 nM, 10 to 100 nM and at most 10 nM, respectively.

Consider `Nc1oc2cc(Cl)cnc2c1C(=O)Nc1cnccc1N1CCC[C@H](N)C1` [Example 53, 2-amino-N-{4-[(3S)-3-aminopiperidin-1-yl]pyridin-3-yl}-6-chloro-furo[3,2-b]pyridine-3-carboxamide], for which the results for the IC50 at Pim-2, on Pim-3 and on Pim-1 were 10 to 100 nM, at most 10 nM and at most 10 nM, respectively.

Take `C[C@@H]1C[C@H](N)CN(c2ccncc2NC(=O)c2c(N)oc3cc(OC(F)F)cnc23)C1` [Example 120, 2-Amino-N-(4-((3S,5R)-3-amino-5-methylpiperidin-1-yl)pyridin-3-yl)-6-(difluoromethoxy)furo[3,2-b]pyridine-3-carboxamide]: the IC50 was 10 to 100 nM at Pim-2, at most 10 nM at Pim-3 and at most 10 nM at Pim-1.

Consider `C[C@H]1CN(c2ccncc2NC(=O)c2c(N)sc3cc(NC(=O)C4CC4)cnc23)C[C@@H](N)[C@@H]1O` [Example 142, 2-Amino-N-(4-((3R,4R,5S)-3-amino-4-hydroxy-5-methylpiperidin-1-yl)pyridin-3-yl)-6-(cyclopropanecarboxamido)thieno[3,2-b]pyridine-3-carboxamide], for which the results for the IC50 at Pim-2, on Pim-3 and on Pim-1 were 10 to 100 nM, at most 10 nM and at most 10 nM, respectively.

Take `Nc1oc2cc(C3CCOCC3)cnc2c1C(=O)Nc1cnccc1N1C[C@@H](N)C[C@@H](C(F)(F)F)C1` [Example 92, 2-Amino-N-{4-[(3S,5R)-3-amino-5-(trifluoromethyl)piperidin-1-yl]pyridin-3-yl}-6-(tetrahydro-2H-pyran-4-yl)furo[3,2-b]pyridine-3-carboxamide]: the IC50 on Pim-2, at Pim-3 and at Pim-1 was at most 10 nM each time.

In the case of `Nc1sc2cccnc2c1C(=O)Nc1cnccc1N1CCC[C@H](N)C1` [Example 6, 2-Amino-N-{4-[(3S)-3-aminopiperidin-1-yl]pyridin-3-yl}thieno[3,2-b]pyridine-3-carboxamide], the IC50 is 100 to 1000 nM at Pim-2, at most 10 nM at Pim-3 and at most 10 nM at Pim-1.

On to `CN1CCC(c2cnc3c(C(=O)Nc4cnn(C)c4N4C[C@@H](N)C[C@@H](C(F)(F)F)C4)c(N)oc3c2)CC1` [Example 94, 2-Amino-N-{5-[(3S,5R)-3-amino-5-(trifluoromethyl)piperidin-1-yl]-1-methyl-1H-pyrazol-4-yl}-6-(1-methylpiperidin-4-yl)furo[3,2-b]pyridine-3-carboxamide], for which the values for the IC50 on Pim-2, on Pim-3 and on Pim-1 were 10 to 100 nM, at most 10 nM and at most 10 nM, respectively.

In the case of `Cn1ncc(NC(=O)c2c(N)oc3cc(Cl)cnc23)c1N1CCCC(N)CC1` (stereo not drawn) [Example 57, 2-Amino-N-[5-(4-aminoazepan-1-yl)-1-methyl-1H-pyrazol-4-yl]-6-chlorofuro[3,2-b]pyridine-3-carboxamide], the IC50 was 100 to 1000 nM on Pim-2, at most 10 nM at Pim-3 and at most 10 nM on Pim-1.

As for `Nc1sc2cc(-c3ccccc3)cnc2c1C(=O)Nc1cnccc1N1CCC[C@H](N)C1` [Example 24, 2-Amino-N-{4-[(3S)-3-aminopiperidin-1-yl]pyridin-3-yl}-6-phenylthieno[3,2-b]pyridine-3-carboxamide], the IC50 at Pim-2 is above 1000 nM; on Pim-3 it was at most 10 nM; on Pim-1, at most 10 nM.

As for `Nc1sc2cc(N3CCOCC3)cnc2c1C(=O)Nc1cnccc1N1C[C@@H](N)C[C@@H](C(F)(F)F)C1` [Example 144, 2-Amino-N-(4-((3S,5R)-3-amino-5-(trifluoromethyl)piperidin-1-yl)pyridin-3-yl)-6-morpholinothieno[3,2-b]pyridine-3-carboxamide], the IC50 on Pim-2 is 10 to 100 nM; on Pim-3, at most 10 nM; on Pim-1 it was at most 10 nM.

As for `C[C@@H]1C[C@H](N)CN(c2ccncc2NC(=O)c2c(N)sc3cccnc23)C1` [Example 15, 2-Amino-N-{4-[(3S,5R)-3-amino-5-methyl-piperidin-1-yl]pyridin-3-yl}-thieno[3,2-b]pyridine-3-carboxamide], the IC50 is 100 to 1000 nM at Pim-2, at most 10 nM on Pim-3 and at most 10 nM at Pim-1.

As to `CCCc1cnc2c(C(=O)Nc3cncc(C)c3N3C[C@@H](N)[C@H](O)[C@@H](C)C3)c(N)oc2c1` [Example 77, 2-Amino-N-{5-methyl-4-[(3R,4R,5S)-3-amino-4-hydroxy-5-methylpiperidin-1-yl]pyridin-3-yl}-6-propylfuro[3,2-b]pyridine-3-carboxamide], the IC50 on Pim-2, on Pim-3 and at Pim-1 was at most 10 nM throughout.
